Holding throughout (format): functional
Assay [1] is filed under the species Rattus norvegicus. Briefly: In vitro inhibitory activity against [3H]-5-HT uptake into crude synaptosomes from whole rat brain.
Assay [2] is filed under the species Rattus norvegicus. Briefly: In vitro inhibitory activity against [3H]5-HT uptake into crude synaptosomes from whole rat brain.
The test system of assay [3] is Mus musculus. Briefly: Prevention of reserpine-induced ptosis in the mouse after peroral administration.
Assay [4] relates to Mus musculus. Briefly: Effect on tetrabenazine-induced suppression of locomotor activity in the mouse after peroral administration.

Molecules are shown by their SMILES. pIC50: −log10 of the molar value.

Broadly, the pIC50 is the IC50 on a negative log10 scale, so that one unit is a factor of ten. High values mean a low IC50, low ones a high IC50. Regarding `CN(C)CCCN1c2ccccc2CCc2ccccc21` [IMIPRAMINE], the pIC50 was 5.51 in the assay listed under Rattus norvegicus [1] and 6.62 in the assay filed under Rattus norvegicus [2]. In addition, the MED with Mus musculus [3] and in the assay with Mus musculus [4] was 4 (mg of base) kg-1 each time.
